What was measured:
CHK [1] = assay: CHK phosphorylation of Flag-tagged β-synuclein in transfected HEK293T cells; format: cell-based; conditions: HEK293T co-transfected with CHK; pervanadate-treated; Western blot
CHK-His6 = target: T1, CHK-His6 (Rattus norvegicus, UniProt P41243); assay: Kinetic analysis of phosphorylation of peptide substrates by CHK-His6; format: biochemical
T1 sequence (P41243 1-467): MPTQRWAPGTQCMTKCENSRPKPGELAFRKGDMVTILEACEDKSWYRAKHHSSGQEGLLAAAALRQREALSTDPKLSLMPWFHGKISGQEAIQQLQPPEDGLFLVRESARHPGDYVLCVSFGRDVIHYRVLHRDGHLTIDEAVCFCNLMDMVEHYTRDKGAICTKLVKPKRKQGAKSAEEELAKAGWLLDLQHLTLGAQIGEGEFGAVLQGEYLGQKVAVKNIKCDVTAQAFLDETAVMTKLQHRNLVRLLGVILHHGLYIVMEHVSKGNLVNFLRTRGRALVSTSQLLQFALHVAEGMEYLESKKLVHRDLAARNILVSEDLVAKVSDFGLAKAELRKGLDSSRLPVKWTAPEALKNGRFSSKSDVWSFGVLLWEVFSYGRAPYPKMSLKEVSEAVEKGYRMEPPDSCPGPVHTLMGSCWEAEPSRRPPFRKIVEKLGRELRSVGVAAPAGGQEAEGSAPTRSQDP

[2] = Circular dichroism analysis of secondary structure; format: physicochemical; conditions: aqueous solution; SFig. 6
CHK [3] = assay: CHK phosphorylation of peptides derived from α- and β-synucleins; format: biochemical; conditions: 30 °C; for reduction in CHK phosphorylation rate: vs β-syn(112–134), Fig. 2B, P81 filter assay, [γ-^32P]ATP
transgenic mice = conditions: mouse, in vivo; cited from earlier work
CHK [4] = assay: Phosphorylation of α- and β-synucleins by CHK; format: biochemical; conditions: for phosphate incorporated by CHK: reaction time 120 min, synuclein 0.56 μM, CHK 0.04 μM
CHK [5] = format: biochemical; conditions: higher than that of hsp90 (SFig. 4B)
[6] = CHK-His6 0.2 μM, substrate peptides 0–400 μM
[7] = CHK-His6 0.2 μM, substrate peptides 0–400 μM, Lineweaver-Burk plots
[8] = vs β-syn(112–134) and SFK-C-terminal peptide

Flag-[Y127F]β-synuclein: [Y127F]β-synuclein with the Flag tag attached at the N-terminus
effect of Y127F on CHK-induced phosphorylation in cells (CHK [1]): reduced the level of CHK-induced phosphorylation

KKDPEERPTFEYLQSFTATEPQYQPGENL [SFK C-terminal Peptide, reference compound]
kcat/KM (CHK-His6; [6]): 5.1×10^−4 μM^−1S^−1
kcat (CHK-His6; [7]): 0.13 ± 0.003 S^−1
secondary structure by CD [2]: random coil conformation

KKKK-MEPEGESYEDPPQEEYQEYEPEA [β-syn(112–134)]
kcat/KM (CHK-His6; [6]): 6.7×10^−4 μM^−1S^−1
kcat (CHK-His6; [7]): 0.17 ± 0.01 S^−1
secondary structure by CD [2]: random coil conformation
CHK phosphorylation efficiency relative to α-syn peptide (CHK [3]; higher than α-syn(117–140) peptide, CHK 0.11 μM, peptide 20 μM, time course (Fig. 3B)): ~ 10 fold

KKK–GESFEAQDEGIYWNVGPEA [[D9A]CHK-optimal peptide]
kcat/KM (CHK-His6; [6]): 111×10^−4 μM^−1S^−1
kcat (CHK-His6; [7]): 1.27 ± 0.06 S^−1
effect of D9A substitution on KM (CHK-His6; vs CHK-optimal peptide): small increase in KM
effect of D9A substitution on kcat (CHK-His6; vs CHK-optimal peptide): slight reduction of kcat

KKK–GESFEDQDEGIYWNVGPEA [CHK-optimal peptide]
kcat/KM (CHK-His6; [6]): 140×10^−4 μM^−1S^−1
kcat (CHK-His6; [7]): 1.45 ± 0.05 S^−1
kcat (CHK-His6; CHK-optimal peptide): 1.45 s⁻¹
kcat relative to β-syn(112–134) and SFK-C-terminal peptide (CHK-His6; [8]): approximately ten-fold higher
phosphorylation efficiency in comparison (CHK-His6; [8]): phosphorylated with an efficiency higher than those of β-syn(112–134) and SFK-C-terminal peptide

[P123H] β-synuclein: β-synuclein mutant, proline to histidine substitution at position 123
phenotype of transgenic mice overexpressing the mutant (transgenic mice): progressive neurodegeneration

[Y119F, Y130F]β-syn(112–134): contains Y127 as the only tyrosine
reduction in CHK phosphorylation rate (CHK [3]): 30%

[Y127F] β-syn(112–134): Y127 is replaced by phenylalanine
reduction in CHK phosphorylation rate (CHK [3]): 84%

α-synuclein
phosphate incorporated by CHK (CHK [4]): 0.024 pmol
CHK substrate quality in comparison (CHK [4]; α-synuclein vs β-synuclein): much poorer substrate of CHK compared to β-synuclein

β-synuclein: recombinant β-synuclein (GST-β-synuclein in Fig. 5); potential CHK substrate in rat brain cytosol
phosphate incorporated by CHK (CHK [4]): ~ 0.9 pmol
rate of CHK phosphorylation relative to hsp90 (CHK [5]): ~ 23 fold

Reference: article PMC3156789 (Biochemistry, 2011)
